In patent publication US7531356B2, “Promoter sequences for corticotropin releasing-factor receptor CRF2α and method of identifying agents that alter the activity of the promoter sequences” (Wisconsin Alumni Research Foundation, priority 2000, dated 2009):
Ends that are not written are not given here.

Experiments:
[1] = tested on: full-length CRF2α receptor promoter (−3898 construct); assay: Luciferase reporter expression from the full-length (−3898) CRF2α receptor promoter construct in transfected A7R5 cultures; type: cell-based, human; conditions: for effect of antagonist on CRF or urocortin induced reduction in expression from the full length promoter: antagonist 1 μM plus CRF or urocortin 1 μM; for change in expression from the −3898 construct compared to untreated control cultures: agonist 1 μM alone, p<0.001
Protocol: (§1) In one embodiment, the present invention is a transfected cell line. One preferred method of creating such a cell line is described as follows: The constructs described above containing the human or rat promoter fragments placed upstream of the firefly luciferase gene are used to transfect immortalized cell lines. The constructs are transfected into CHO-K1 and A7R5 cell lines using lipofectamine 2000 (Life Technologies, Rockville, Md.). […] Both cell lines can be maintained at 37° C. with 5% CO2 in DMEM supplemented with 10% fetal bovine serum. Primary cultures of the central nervous system, as well as additional immortalized cell lines, are also appropriate for these transfections. To control for transfection efficiency, the cells are also co-transfected with the pRL-TK vector (Promega, Madison, Wis.). The pRL-TK vector contains the Renilla luciferase gene downstream of the herpes simplex virus thymidine kinase promoter, a promoter which provides low to moderate levels of expression. Cell lysates are assayed for total protein using the BCA assay (Pierce, Rockford, Ill.) to standardize for the protein extraction. The level of reporter gene expression from a standardized amount of cell extract is quantified by measuring luciferase activity using a luminometer (EG&G Wallac, Gaithersburg, Md.) and the dual-luciferase reporter assay system (Promega, Madison, Wis.). Firefly luciferase activity reflects CRF2α receptor promoter activity and Renilla luciferase activity is used to normalize data between experiments.
Using a similar experimental paradigm, we treated A7R5 cultures to determine what agents may alter expression from the CRF2α promoter. In addition to treating the cultures with CRF and urocortin (1 μM each), A7R5 cultures also were treated with either of the antagonists alone D-Phe or DMP696 (1 μM each), CRF plus D-Phe (1 μM each), CRF plus DMP696 (1 μM each), urocortin plus D-Phe (1 μM each), and with urocortin plus DMP696 (1 μM each). D-Phe is a non-selective CRF receptor antagonist, blocking both CRF1 and CRF2 receptors, whereas DMP696 is specific to CRF1 receptors. A7R5 cultures are known to express CRF2 receptors and should be a highly appropriate cell type to monitor CRF2α receptor expression.
In a separate experiment the effects of forskolin and dexamethasone were compared to DMSO control A7R5 cultures. […] These findings are consistent with those seen in the CHO-K1 cultures.

[2] = tested on: full-length CRF2α receptor promoter (−3898 construct); assay: Luciferase reporter expression from the full-length (−3898) CRF2α receptor promoter construct in transfected CHO-K1 cultures; type: cell-based, human; conditions: CHO-K1, −3898 construct, forskolin 10 μM without IBMX, 24 hours; for change in expression from the full-length CRF2α promoter compared with control cultures: CRF, urocortin, dexamethasone 1 μM, vs untreated (CRF, urocortin) or DMSO control
Protocol: as §1
A stated goal for the constructs is the ability to identify agents that can alter expression of the CRF2α gene. […] Using methods previously described in this application, CHO-K1 cultures were transfected with the −3898 construct and the pRL-TK internal control construct. These cultures were then treated with either CRF (1 μM), urocortin (1 μM), dexamethasone (1 μM), forskolin (10 μM), or the appropriate control at the time of transfection. […]

Row | Molecule | effect of antagonist on CRF or urocortin induced reduction in expression from the full length promoter [1] | mean expression (firefly luciferase activity normalized to Renilla luciferase) ([2]; DMSO control mean 0.411±0.004, p<0.001) | change in expression from the full-length CRF2α promoter compared with control cultures [2] | change in expression from the −3898 construct compared to untreated control cultures [1]
1 | COCC(COC)Nc1nc(C)nc2c(-c3ccc(Cl)cc3Cl)c(C)nn12 [DMP696] | did not affect either the CRF or urocortin induced reduction in expression |  |  | 
2 | C=C[C@@]1(C)CC(=O)[C@]2(O)[C@@]3(C)[C@@H](O)CCC(C)(C)[C@@H]3[C@H](O)[C@H](OC(C)=O)[C@@]2(C)O1 [forskolin] |  | 0.302±0.012 |  | 
3 | CRF: hormone and neurotransmitter; ligand for the CRF receptors |  |  | did not significantly change expression | significantly decrease expression
4 | D-Phe | brought expression from the full length promoter back to the levels seen in the untreated controls |  |  | 
5 | urocortin: neurotransmitter similar to CRF; ligand for the CRF receptors (DNPSLSIDLTFHLLRTLLELARTQSQRERAEQNRIIFDSV; ends and bridges not checked; UniProt P55089 83-122, looked up) |  |  | did not significantly change expression | significantly decrease expression
